Data on 22 compounds can be found in patent US10822348B2, “Inhibitors of Bruton's tyrosine kinase and methods of their use” (JANSSEN PHARMACEUTICA NV, priority 2015, dated 2020).

The test addresses unphosphorylated-BTK kinase domain (UP-BTK), GST-tagged human BTK (389-659aa) (Homo sapiens (Human), UniProt Q06187). Description: BTK kinase Lanthascreen binding assay. As to the method: BTK Kinase Lanthascreen Binding Assay:
A BTK kinase lanthascreen binding assay monitors compound binding to unphosphorylated-BTK kinase domain (UP-BTK), by competing with a fluorescent labeled tracer. […] Data were analyzed using Xlfit™ version 5.3 from ID Business Solutions (Guildford), Microsoft Excel add-in. pIC50 refers to the negative log of the IC50 in molar.
(In general: In TR-FRET formats the signal depends on donor and acceptor labels being close together.)

Where [1] appears, read: unphosphorylated-BTK kinase domain, 60 minutes incubation, pIC50 = negative log of the IC50 in molar.
Setting [2] is: negative log of the IC50 in molar, 60 minutes incubation with 50 nM Tracer 236.
[3] abbreviates: negative log of the IC50 in molar, 60 minutes incubation, 50 nM Tracer 236.

unphosphorylated-BTK kinase domain (UP-BTK), GST-tagged human BTK (389-659aa), sequence (Q06187 389-659): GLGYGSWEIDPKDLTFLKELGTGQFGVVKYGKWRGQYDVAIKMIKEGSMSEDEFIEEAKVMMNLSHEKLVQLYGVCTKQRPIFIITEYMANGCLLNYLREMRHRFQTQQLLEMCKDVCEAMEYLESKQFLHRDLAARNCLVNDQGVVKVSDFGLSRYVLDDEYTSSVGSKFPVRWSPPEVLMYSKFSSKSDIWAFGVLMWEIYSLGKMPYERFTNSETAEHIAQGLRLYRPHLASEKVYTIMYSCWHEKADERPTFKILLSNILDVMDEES

With `Cc1cc(Oc2ccccc2)ccc1N1C(=O)Nc2c(C(=O)N[C@@H]3CCCOC3)sc3nccc1c23` (single isomer, unassigned) [Example 307, (R)-5-(*R)-(2-Methyl-4-phenoxyphenyl)-4-oxo-N-(tetrahydro-2H-pyran-3-yl)-4,5-dihydro-3H-1-thia-3,5,8-triazaacenaphthylene-2-carboxamide], the “BTK_I_binding pIC50” value under setting [1] is reported as 6.0.
On the same count and under the same terms, next, `C=CC(=O)N1CCC[C@H](NC(=O)c2sc3nccc4c3c2NC(=O)N4c2ccc(Oc3ccccc3)cc2C)C1` (single isomer, unassigned) [Example 289, (S)—N-(1-Acryloylpiperidin-3-yl)-5-(*R)-(2-methyl-4-phenoxyphenyl)-4-oxo-4,5-dihydro-3H-1-thia-3,5,8-triazaacenaphthylene-2-carboxamide]: 6.2.
Consider `C=CC(=O)N1CCC[C@@H](NC(=O)c2sc3nccc4c3c2NC(=O)N4c2ccc(Oc3ccccc3)nc2C)C1` (single isomer, unassigned) [Example 690, (R)—N-(1-Acryloylpiperidin-3-yl)-5-(*R)-(2-methyl-6-phenoxypyridin-3-yl)-4-oxo-4,5-dihydro-3H-1-thia-3,5,8-triazaacenaphthylene-2-carboxamide], for which the “BTK_I_binding pIC50” value under setting [2] is listed as 7.6.
Regarding `C=CC(=O)N1C[C@@H](O)C[C@@H](NC(=O)c2sc3nccc4c3c2NC(=O)N4c2ccc(Oc3ccccc3)cc2C)C1` (single isomer, unassigned) [Example 2, N-((3R,5S)-1-Acryloyl-5-hydroxypiperidin-3-yl)-5-(*S)-(2-methyl-4-phenoxyphenyl)-4-oxo-4,5-dihydro-3H-1-thia-3,5,8-triazaacenaphthylene-2-carboxamide], the IC50 (read-out: BTK_I_binding pIC50 (converted)) is 6.31 nM.
As for `CNC/C=C/C(=O)N1CCC[C@@H](NC(=O)c2sc3nccc4c3c2NC(=O)N4c2ccc(Oc3ccccc3)cc2C)C1` (single isomer, unassigned) [Example 23, (R,E)-5-(*S)-(2-Methyl-4-phenoxyphenyl)-N-(1-(4-(methylamino)but-2-enoyl)piperidin-3-yl)-4-oxo-4,5-dihydro-3H-1-thia-3,5,8-triazaacenaphthylene-2-carboxamide], the “BTK_I_binding pIC50” value under setting [3] worked out at 7.5.
For `CCOC(C)(C)/C=C(\C#N)C(=O)N1CCC[C@@H](NC(=O)c2sc3nccc4c3c2NC(=O)N4c2ccc(Oc3ccccc3)cc2C)C1` (single isomer, unassigned) [Example 478, (R,*E)-N-(1-(2-Cyano-4-ethoxy-4-methylpent-2-enoyl)piperidin-3-yl)-5-(*S)-(2-methyl-4-phenoxyphenyl)-4-oxo-4,5-dihydro-3H-1-thia-3,5,8-triazaacenaphthylene-2-carboxamide], under setting [1], the “BTK_I_binding pIC50” value is on record as 7.8.
Take `O=C(CCCC(=O)NCCCOCCOCCOCCCNC(=O)CCCC[C@H]1SC[C@H]2NC(=O)N[C@H]21)NC/C=C/C(=O)N1CCCC(NC(=O)c2sc3nccc4c3c2NC(=O)N4c2ccc(Oc3ccccc3)cn2)C1` (stereo partly drawn) [Example 780, N^1-(15-oxo-19-((3aR,4R,6aS)-2-oxohexahydro-1H-thieno[3,4-d]imidazol-4-yl)-4,7,10-trioxa-14-azanonadecyl)-N^5-((E)-4-oxo-4-(3-(4-oxo-5-(5-phenoxypyridin-2-yl)-4,5-dihydro-3H-1-thia-3,5,8-triazaacenaphthylene-2-carboxamido)piperidin-1-yl)but-2-en-1-yl)glutaramide]: the “BTK_I_binding pIC50” value under setting [2] is given as 6.3.
As for `C=CC(=O)N1CCC[C@H](NC(=O)c2sc3nccc4c3c2NC(=O)N4c2ccc(Oc3ccccc3)cc2C)C1` (single isomer, unassigned) [Example 82, (S)—N-(1-acryloylpiperidin-3-yl)-5-(*S)-(2-methyl-4-phenoxyphenyl)-4-oxo-4,5-dihydro-3H-1-thia-3,5,8-triazaacenaphthylene-2-carboxamide], the “BTK_I_binding pIC50” value under setting [3] is 7.2.
Still for that read-out and setting: next, `C=CC(=O)N1CCC[C@H](NC(=O)c2sc3nccc4c3c2NC(=O)N4c2ccc(Oc3ccccc3)cc2C)C1` (single isomer, unassigned) [Example 44, (S)—N-(1-Acryloylpiperidin-3-yl)-5-(*S)-(2-methyl-4-phenoxyphenyl)-4-oxo-4,5-dihydro-3H-1-thia-3,5,8-triazaacenaphthylene-2-carboxamide]: 7.4.
As for `C=CC(=O)N1CCC[C@@H](NC(=O)c2sc3nccc4c3c2NC(=O)N4c2ccc(CC(C)C)nc2C)C1` (single isomer, unassigned) [Example 815, (R)—N-(1-Acryloylpiperidin-3-yl)-5-(*R)-(6-isobutyl-2-methylpyridin-3-yl)-4-oxo-4,5-dihydro-3H-1-thia-3,5,8-triazaacenaphthylene-2-carboxamide], under setting [2], the “BTK_I_binding pIC50” value is less than 6.
For `CNC/C=C/C(=O)N1CCC[C@@H](NC(=O)c2sc3nccc4c3c2NC(=O)N4c2ccc(Oc3ccccc3)cc2C)C1` (single isomer, unassigned) [Example 292, (R,E)-5-(*R)-(2-Methyl-4-phenoxyphenyl)-N-(1-(4-(methylamino)but-2-enoyl)piperidin-3-yl)-4-oxo-4,5-dihydro-3H-1-thia-3,5,8-triazaacenaphthylene-2-carboxamide], the “BTK_I_binding pIC50” value under setting [1] turned out to be 6.1.
With `C=CC(=O)N1CCC[C@@H](NC(=O)c2sc3nccc4c3c2NC(=O)N4c2ccc(Oc3ccccc3)nc2C)C1` (single isomer, unassigned) [Example 661], the “BTK_I_binding pIC50” value under setting [2] came out at 8.3.
As for `C=CC(=O)N1CCC[C@@H](NC(=O)c2sc3nccc4c3c2NC(=O)N4c2cnc(CC(C)C)cc2C)C1` (single isomer, unassigned) [Example 722, (R)—N-(1-Acryloylpiperidin-3-yl)-5-(*R)-(6-isobutyl-4-methylpyridin-3-yl)-4-oxo-4,5-dihydro-3H-1-thia-3,5,8-triazaacenaphthylene-2-carboxamide], the “BTK_I_binding pIC50” value under setting [2] was 6.4.
In the case of `C=CC(=O)N[C@@H]1COC[C@@H]1NC(=O)c1sc2nccc3c2c1NC(=O)N3c1cnc(Oc2ccccc2)cc1C` (stereo in doubt) [Example 752, N-((*3R,*4S)-4-Acrylamidotetrahydrofuran-3-yl)-5-(*S)-(4-methyl-6-phenoxypyridin-3-yl)-4-oxo-4,5-dihydro-3H-1-thia-3,5,8-triazaacenaphthylene-2-carboxamide], under setting [2], the “BTK_I_binding pIC50” value is on record as 6.4.
As to `C=CC(=O)N1C[C@H](NC(=O)c2sc3nccc4c3c2NC(=O)N4c2ccc(Oc3ccccc3)cc2C)[C@@H](OC)C1` (relative stereo) [Example 490, N-((3S,4S)-1-Acryloyl-4-methoxypyrrolidin-3-yl)-5-(*S)-(2-methyl-4-phenoxyphenyl)-4-oxo-4,5-dihydro-3H-1-thia-3,5,8-triazaacenaphthylene-2-carboxamide], the “BTK_I_binding pIC50” value under setting [1] amounted to 7.7.
As to `C=CC(=O)N1CC[C@@H](NC(=O)c2sc3nccc4c3c2NC(=O)N4c2cnc(OCC(C)C)cc2C)C1` (single isomer, unassigned) [Example 779, (R)—N-(1-Acryloylpyrrolidin-3-yl)-5-(*S)-(6-isobutoxy-4-methylpyridin-3-yl)-4-oxo-4,5-dihydro-3H-1-thia-3,5,8-triazaacenaphthylene-2-carboxamide], under setting [2], the “BTK_I_binding pIC50” value is listed as 8.0.
In the case of `Cc1cc(Oc2ccccc2)ccc1N1C(=O)Nc2c(C(=O)N[C@@H]3CCCN(C(=O)/C(C#N)=C/C(C)(C)N4CCOCC4)C3)sc3nccc1c23` (single isomer, unassigned) [Example 112, (R,E)-N-(1-(2-Cyano-4-methyl-4-morpholinopent-2-enoyl)piperidin-3-yl)-5-(*R)-(2-methyl-4-phenoxyphenyl)-4-oxo-4,5-dihydro-3H-1-thia-3,5,8-triazaacenaphthylene-2-carboxamide], under setting [3], the “BTK_I_binding pIC50” value is recorded as 6.9.
As for `C=C(Cl)C(=O)N1CCC[C@@H](NC(=O)c2sc3nccc4c3c2NC(=O)N4c2ccc(Oc3ccccc3)cc2C)C1` (single isomer, unassigned) [Example 366, (R)—N-(1-(2-Chloroacryloyl)piperidin-3-yl)-5-(*S)-(2-methyl-4-phenoxyphenyl)-4-oxo-4,5-dihydro-3H-1-thia-3,5,8-triazaacenaphthylene-2-carboxamide], under setting [1], the “BTK_I_binding pIC50” value came out at 7.1.
The same measure, in the same setting: next, `Cc1cc(Oc2ccccc2)ccc1N1C(=O)Nc2c(C(=O)N[C@@H]3CCCN(C(=O)CN(C)C)C3)sc3nccc1c23` (single isomer, unassigned) [Example 287, (R)—N-(1-(2-(Dimethylamino)acetyl)piperidin-3-yl)-5-(*R)-(2-methyl-4-phenoxyphenyl)-4-oxo-4,5-dihydro-3H-1-thia-3,5,8-triazaacenaphthylene-2-carboxamide]: 6.2.
In the case of `C=CC(=O)N1CCC[C@@H](NC(=O)c2sc3nccc4c3c2NC(=O)N4c2cnc(OC3CCC3)cc2C)C1` (single isomer, unassigned) [Example 700, (R)—N-(1-Acryloylpiperidin-3-yl)-5-(*R)-(6-cyclobutoxy-4-methylpyridin-3-yl)-4-oxo-4,5-dihydro-3H-1-thia-3,5,8-triazaacenaphthylene-2-carboxamide], the “BTK_I_binding pIC50” value under setting [2] came to 8.1.
`Cc1cc(Oc2ccccc2)ccc1N1C(=O)Nc2c(C(=O)N[C@@H]3CCCN(C(=O)/C=C/CNS(C)(=O)=O)C3)sc3nccc1c23` (single isomer, unassigned) [Example 532, (R,E)-5-(*S)-(2-Methyl-4-phenoxyphenyl)-N-(1-(4-(methylsulfonamido)but-2-enoyl)piperidin-3-yl)-4-oxo-4,5-dihydro-3H-1-thia-3,5,8-triazaacenaphthylene-2-carboxamide]: the “BTK_I_binding pIC50” value under setting [1] was determined as 7.4.
On the same count and under the same terms, with `C=CC(=O)N1C[C@@H](F)C[C@@H](NC(=O)c2sc3nccc4c3c2NC(=O)N4c2ccc(Oc3ccccc3)cc2C)C1` (relative stereo) [Example 484, N-((3R,5S)-1-Acryloyl-5-fluoropiperidin-3-yl)-5-(*S)-(2-methyl-4-phenoxyphenyl)-4-oxo-4,5-dihydro-3H-1-thia-3,5,8-triazaacenaphthylene-2-carboxamide] the figure was 8.0.
